Here are results for 17 compounds from ChEMBL document CHEMBL5053525, “Synthesis and antiviral effect of phosphamide modified vidarabine for treating HSV 1 infections” (Bioorg Med Chem Lett, 2021).

The source made the active and inactive calls. The calls are words filed in the database; no cut-off is given here. Some results are limits rather than exact numbers.

Data set [1] concerns Human alphaherpesvirus 1. The data set is described as follows: Antiviral activity against HSV-1 infected in human Huh-7 cells assessed as reduction in plaque forming units at 1 uM measured after 48 hrs by virus titre method. The data set is classed as functional.
In data set [2] the test system is Human alphaherpesvirus 1. The data set is described as follows: Antiviral activity against HSV-1 infected in human HepG2 cells assessed as inhibition of viral replication by measuring ICPO level at 10 uM pre-infected with viral particles for 2 hrs followed by compound treatment for 24 hrs by Western blot analysis. The data set is classed as functional, organism-based. In general terms: In western blotting, separated proteins are transferred to a membrane and probed.

Data set [3] concerns Human alphaherpesvirus 1. Put plainly: Antiviral activity against HSV-1 infected in human Huh-7 cells assessed as inhibition of viral replication by measuring ICPO level at 10 uM pre-infected with viral particles for 2 hrs followed by compound treatment for 24 hrs by Western blot analysis. The class given is functional, organism-based.
Data set [4] concerns Human alphaherpesvirus 1. The data set is described as follows: Antiviral activity against HSV-1 infected in African green monkey Vero cells assessed as inhibition of viral replication by measuring ICPO level at 10 uM pre-infected with viral particles for 2 hrs followed by compound treatment for 24 hrs by Western blot analysis. The data set is classed as functional, organism-based.

In data set [5] the test system is Huh-7. The data set is described as follows: Cytotoxicity against human Huh-7 cells assessed as effect on cell viability at 10 uM measured by MTT asay. The class given is cell-based. The following applies: huh-7, 10 µM.
Data set [6] deals with Human alphaherpesvirus 1. Put plainly: Antiviral activity against GFP-expressing HSV-1 assessed as reduction in viral growth by fluorescence assay. The data set is classed as functional, organism-based.
Data set [7] has as its system Human alphaherpesvirus 1. Put plainly: Antiviral activity against HSV-1 infected in human Huh-7 cells assessed as inhibition of viral replication by measuring ICPO level. The data set is classed as functional, organism-based. The following applies: dose 0.1-1.6 µM.
Data set [8] concerns Human alphaherpesvirus 1. The data set is described as follows: Antiviral activity against HSV-1 infected in human Huh-7 cells assessed as reduction in plaque forming units at 1 uM measured after 48 hrs by virus titre method relative to NTC. The class given is functional.

In the case of `NC(=O)c1ncn([C@@H]2O[C@H](CO)[C@@H](O)[C@H]2O)n1` [RIBAVIRIN], the Activity in data set [1] is 100 PFU/ml.
As to `COC(=O)[C@H](NP(=O)(OC[C@H]1O[C@@H](n2cnc3c(N)ncnc32)[C@@H](O)[C@@H]1O)Oc1ccccc1)C(C)C` (stereo partly specified), the inhibition entry in data set [2] and in data set [3] was “Active” each time.
Take `CC(C)C[C@H](NP(=O)(OC[C@H]1O[C@@H](n2cnc3c(N)ncnc32)[C@@H](O)[C@@H]1O)Oc1ccccc1)C(=O)OC(C)C` (stereo partly specified): the inhibition result in data set [4] was “inactive”. Moreover, the Activity result in data set [5] is “Non-Toxic”. The EC50 (commonly the concentration at which the effect is half-maximal) in data set [6] amounted to 1180 nM. The inhibition result in data set [7] was “Dose-dependent effect”. Besides, the inhibition result in data set [2] and in data set [3] was “Active” each time.
In the case of `CC(C)OC(=O)[C@@H](C)N[P@](=O)(OC[C@H]1O[C@@H](n2cnc3c(N)ncnc32)[C@@H](O)[C@@H]1O)Oc1ccccc1`, the inhibition entry in data set [2] and in data set [3] was “Active” in each case.
Consider `CC(C)OC(=O)[C@@H](N[P@](=O)(OC[C@H]1O[C@@H](n2cnc3c(N)ncnc32)[C@@H](O)[C@@H]1O)Oc1ccccc1)C(C)C`, for which the inhibition result in data set [2] and in data set [3] was “Active” throughout.
On to `CC(C)OC(=O)[C@@H](NP(=O)(OC[C@H]1O[C@@H](n2cnc3c(N)ncnc32)[C@@H](O)[C@@H]1O)Oc1ccccc1)C(C)C` (stereo partly specified), for which the inhibition result in data set [2] and in data set [3] was “Active” throughout.
Take `CC(C)OC(=O)[C@H](C)N[P@](=O)(OC[C@H]1O[C@@H](n2cnc3c(N)ncnc32)[C@@H](O)[C@@H]1O)Oc1ccccc1`: the inhibition entry in data set [2] and in data set [3] was “Active” each time.
On to `CCCCCOC(=O)Nc1ncnc2c1ncn2[C@@H]1O[C@H](CO[P@@](=O)(N[C@@H](C)C(=O)OC(C)C)Oc2ccccc2)[C@@H](O)[C@@H]1O`, for which the inhibition entry in data set [2] and in data set [3] was “Active” throughout.
`COC(=O)[C@@H](NP(=O)(OC[C@H]1O[C@@H](n2cnc3c(N)ncnc32)[C@@H](O)[C@@H]1O)Oc1ccccc1)C(C)C` (stereo partly specified): the inhibition result in data set [2] and in data set [3] was “Active” in each case.
Take `CC(C)OC(=O)CN[P@](=O)(OC[C@H]1O[C@@H](n2cnc3c(N)ncnc32)[C@@H](O)[C@@H]1O)Oc1ccccc1`: the inhibition entry in data set [2] and in data set [3] was “Active” in each case.
Turning to `Nc1nc2c(ncn2COC(CO)CO)c(=O)[nH]1` [GANCICLOVIR], the EC50 in data set [6] is under 100 nM.
Turning to `CC(C)OC(=O)[C@H](Cc1c[nH]c2ccccc12)N[P@](=O)(OC[C@H]1O[C@@H](n2cnc3c(N)ncnc32)[C@@H](O)[C@@H]1O)Oc1ccccc1`, the inhibition entry in data set [2] and in data set [3] was “Active” throughout.
For `CSCC[C@H](N[P@](=O)(OC[C@H]1O[C@@H](n2cnc3c(N)ncnc32)[C@@H](O)[C@@H]1O)Oc1ccccc1)C(=O)OC(C)C`, the inhibition result in data set [2] and in data set [3] was “Active” each time.
As for `CC(C)OC(=O)[C@H](Cc1ccccc1)N[P@](=O)(OC[C@H]1O[C@@H](n2cnc3c(N)ncnc32)[C@@H](O)[C@@H]1O)Oc1ccccc1`, in data set [4], the inhibition entry is “inactive”. In data set [5], the Activity result was “Non-Toxic”. Besides, the EC50 in data set [6] was 1060 nM. Also, the inhibition entry in data set [7] was “Dose-dependent effect”. The inhibition entry in data set [2] and in data set [3] was “Active” each time.
Take `CC(C)C[C@H](N[P@](=O)(OC[C@H]1O[C@@H](n2cnc3c(N)ncnc32)[C@@H](O)[C@@H]1O)Oc1ccccc1)C(=O)OC(C)C`: the inhibition entry in data set [4] was “inactive”. The Activity entry in data set [5] is recorded as “Non-Toxic”. Besides, the EC50 in data set [6] came out at 526 nM. Moreover, the inhibition result in data set [7] was “Dose-dependent effect”. Besides, the inhibition entry in data set [2] and in data set [3] was “Active” in each case. Moreover, the “fold change (FC)” value in data set [8] stood at 1000. Further, the result in data set [1] was inactive.
Regarding `CC(C)OC(=O)[C@H](C)NP(=O)(OC[C@H]1O[C@@H](n2cnc3c(N)ncnc32)[C@@H](O)[C@@H]1O)Oc1ccccc1` (stereo partly specified), the inhibition result in data set [2] and in data set [3] was “Active” each time.
Take `CSCC[C@H](NP(=O)(OC[C@H]1O[C@@H](n2cnc3c(N)ncnc32)[C@@H](O)[C@@H]1O)Oc1ccccc1)C(=O)OC(C)C` (stereo partly specified): the inhibition result in data set [2] and in data set [3] was “Active” each time.
